# Reference: patent US20250255866A1, “USES OF FATTY ACID AMIDE HYDROLASE INHIBITORS IN TREATMENT OF TRAUMA RELATED PSYCHIATRIC DISORDERS” (Neuritek Therapeutics Ltd., priority 2020, published 2025)
# Legend:
# adults with PTSD = experiment: Exploratory behavioral analyses 1: effect relative to placebo on PTSD symptoms; assay type: in vivo, human
# Experimental: (a). To evaluate the effect of daily 450 mg of 3-{[5-(2-Fluorophenyl)pyridin-2-yl]oxy}-N-(pyridazin-3-yl)azetidine-1-carboxamide relative to placebo in mitigating PTSD symptoms in adults with PTSD. Patient will be receiving a 450 mg dose of the study agent.
# (b). To evaluate the effect of 450 mg of the study drug relative to placebo in mitigating PTSD symptoms that comprise a contemporary, five-factor phenotypic model of this disorder, as well as secondary “intermediate phenotype” measures of anxiety sensitivity and somatic anxiety.
# FAAH = experiment: Changes in plasma fatty acid amide (FAA) levels in response to the FAAH inhibitor; assay type: in vivo, human; details: 450 mg/day, plasma drug level 200 nm/ml to about 600 ng/ml, predicted maximal change
# Experimental: In other embodiments, upon achieving trough steady state plasma, plasma FAA levels will be minimal. Conversely, at the 450 mg/day dose, changes in plasma FAA levels in response to 3-{[5-(2-Fluorophenyl)pyridin-2-yl]oxy}-N-(pyridazin-3-yl)azetidine-1-carboxamide ranging from 200 nm/ml to about 600 ng/ml are predicted to be maximal; in the order of 3, 4, 8 and 5 ng/mL for AEA, LEA, OEA and PEA, respectively.
compound,measurement,setting,value
O=C(Nc1cccnn1)N1CC(Oc2ccc(-c3ccccc3F)cn2)C1 [3-{[5-(2-Fluorophenyl)pyridin-2-yl]oxy}-N-(pyridazin-3-yl)azetidine-1-carboxamide],"PTSD symptoms of the five-factor phenotypic model, anxiety sensitivity and somatic anxiety, relative to placebo",adults with PTSD; 450 mg daily dose,most pronounced effect on reducing anxious arousal
same,overall severity of PTSD symptoms relative to placebo,adults with PTSD; daily 450 mg,reduction in overall severity of PTSD symptoms
same,change in plasma FAA level: AEA,FAAH,~3 ng/mL
same,change in plasma FAA level: LEA,FAAH,~4 ng/mL
same,change in plasma FAA level: OEA,FAAH,~8 ng/mL
same,change in plasma FAA level: PEA,FAAH,~5 ng/mL
